Laboratory results: patent US20210260051A1, “COMBINATION OF EZH2 INHIBITOR AND CHECKPOINT THERAPY FOR THE TREATMENT OF CANCER” (Board of Regents, The University of Texas System, priority 2018, published 2021)

Tests used:
[1] = test system: murine inducible regulatory T cell (iTreg) differentiation; assay: in vitro differentiation of murine naïve CD4 T cells into inducible regulatory T cells with EZH2 inhibitors; format: cell-based, mouse; conditions: compared with the other EZH2 inhibitors; FIG. 4A
Excerpt: FIGS. 4A-B: (FIG. 4A) Percentages of inducible regulatory T cells following in vitro differentiation of murine naïve CD4 T cells into regulatory T cells in the presence and absence of various EZH2 inhibitors. (FIG. 4B) Representative counts of viable cells in culture following treatment with EZH2 inhibitors. Data is representative of three independent experiments. One-way ANOVA was used to determine significance between the groups. **p<0.01.
To investigate whether the data observed in the FoxP3^creEZH2^fl/fl mouse model could be recapitulated by pharmacological inhibition of EZH2 in T cells, the effect of different EZH2 inhibitors on regulatory T cell differentiation was compared. CPI-1205 was compared with commercially available EZH2 inhibitors.
(§1) In vitro T cell assays. Human peripheral regulatory T cells were isolated from peripheral blood mononuclear cells by enriching for CD4^+CD127^low CD25^+ cells using the EasySep Human Regulatory T Cell Isolation Kit (STEMCELL Technologies, Cambridge, Mass.). For mouse in vitro regulatory T cell differentiation, CD4^+CD25^low CD44^low CD62L^hinaïve splenic T cells were isolated from C57BL/6 mice using BD FACSAria (BD Biosciences, San Jose, Calif.). The cells were then differentiated in the presence of recombinant murine IL-2 (R&D, 402-ML), tumor growth factor-β (TGF-β, R&D 7666-MB), CPI-1205 or dimethyl sulfoxide (DMSO) and cultured for 6 days.

[2] = patients, continuous daily dosing; cited from earlier work
[3] = test system: inducible regulatory T cells; assay: Luminex-based cytokine analysis of iTreg culture supernatant; format: cell-based, mouse; conditions: iTregs differentiated with vs without CPI-1205; FIG. 5C
Excerpt: (§2) FIGS. 5A-5C: Naïve T cells from FoxP3enhanced green fluorescent protein (eGFP) C57BL/6 mice that were differentiated into iTregs in the presence or absence of CPI-1205. GFP^+FoxP3^+ regulatory T cells were subsequently used for RNA sequencing analysis. (FIG. 5A) Ingenuity Pathway Analysis of RNA sequencing data of regulatory T cells differentiated in the presence of DMSO or CPI-1205. (FIG. 5B) Differentially expressed genes (DEGs) seen following differentiation of inducible regulatory T cells in presence of CPI-1205 or DMSO. (FIG. 5C) Luminex-based cytokine analysis of culture supernatant from inducible regulatory T cells following differentiation with CPI-1205 or DMSO. 2 tailed student t test was used to determine significance; NS, not significant. **p<0.01.
To understand CPI-1205-mediated molecular changes underlying the loss of suppressive activity of regulatory T cells, naïve murine T cells (CD4^+CD25^low CD44^low CD62^hi) from FoxP3-enhanced green fluorescent protein (eGFP) C57BL/6 mice were differentiated into iTregs in the presence or absence of CPI-1205. Purified GFP^+FoxP3^+ regulatory T cells were subsequently used for RNA sequencing analysis. […] The cytokine levels were subsequently examined in the culture supernatant of the iTregs that were differentiated with and without CPI-1205. […]

[4] = test system: GFP+FoxP3+ regulatory T cells (iTregs); assay: RNA sequencing of GFP+FoxP3+ regulatory T cells differentiated with CPI-1205 or DMSO; format: cell-based, mouse; conditions: CPI-1205 vs DMSO
Excerpt: as §2
To understand CPI-1205-mediated molecular changes underlying the loss of suppressive activity of regulatory T cells, naïve murine T cells (CD4^+CD25^low CD44^low CD62^hi) from FoxP3-enhanced green fluorescent protein (eGFP) C57BL/6 mice were differentiated into iTregs in the presence or absence of CPI-1205. Purified GFP^+FoxP3^+ regulatory T cells were subsequently used for RNA sequencing analysis. […] The cytokine levels were subsequently examined in the culture supernatant of the iTregs that were differentiated with and without CPI-1205. […] CPI-1205 can also skew the phenotype of iTregs to pro-inflammatory cytokine producing effector-like T cells. In the study, it was noted that EZH2 inhibition leads to decreased expression of not only FoxP3 but also other critical genes, such as NRP1 and BACH2, which are required for regulatory T cell stability (16-18). CPI-1205 treated regulatory T cells seem to acquire the phenotype of so called “exFoxP3” cells which was previously shown to have an activated memory phenotype (Zhou et al., 2009).
as §1
RNA sequencing. RNA was extracted from peripheral CD4 T cells isolated from patients with metastatic melanoma and from in vitro differentiated GFP^+ regulatory T cells. RNA sequencing reactions were performed by Active Motif (Carlsbad, Calif.) and Ocean Ridge Biosciences (Deerfield, Fla.) using an Illumina HiSeq 50-bp platform. For bioinformatics analysis, the raw reads were aligned to the mm10 reference genome using TopHat2. HTSeq count was used to count the raw reads that were uniquely mapped to each gene. DESeq2 was then applied to normalize the raw read counts and identify the differentially expressed genes between the groups. The beta-uniform mixture model was used to fit the p value distribution for multiple testing adjustments. The lists of differentially expressed genes were then used as input into Ingenuity Pathway Analysis for pathway analysis. RNA-sequencing data were deposited in the NCBI's Gene Expression Omnibus database.

Q: With `COc1cc(C)[nH]c(=O)c1CNC(=O)c1c(C)n([C@H](C)C2CCN(CC(F)(F)F)CC2)c2ccccc12` [CPI-1205, N-[(4-methoxy-6-methyl-2-oxo-1H-pyridin-3-yl)methyl]-2-methyl-1-[(1R)-1-[1-(2,2,2-trifluoroethyl)piperidin-4-yl]ethyl]indole-3-carboxamide] as the compound, how does the “suppression of murine inducible regulatory T cell (iTreg) differentiation” value [1] read?
A: Its value is “most striking effect”.

Q: And the dose-limiting toxicities [2]?
A: The dose-limiting toxicities was “no dose-limiting toxicities”.

Q: And the tolerability [2]?
A: The tolerability was “well tolerated”.

Q: And the “pro-inflammatory cytokines in the culture supernatant” value [3]?
A: The value was “significantly increased”.

Q: What about the “pro-inflammatory pathways (Th-1/Th-2), Ingenuity Pathway Analysis” value ([4]; FIG. 5A) of the same compound?
A: The value was “upregulation”.

Q: And the BACH2 expression ([4]; FIG. 5B)?
A: Its BACH2 expression is “decreased”.

Q: What about the FoxP3 expression ([4]; FIG. 5B) of the same compound?
A: The FoxP3 expression was “decreased”.

Q: What about the “effector cytokines and chemokines (differentially expressed genes)” value ([4]; FIG. 5B) of the same compound?
A: The value was “increase”.

Q: And the “neuropilin 1 (NRP1) expression” value ([4]; FIG. 5B)?
A: Its value is “decreased”.
